Measured values reported in patent publication US20250326748A1, “COMPOUNDS AND METHODS FOR MODULATING SPLICING” (REMIX THERAPEUTICS INC., priority 2022, published 2025).
Counter-ions that a name gives are not always drawn. Like-named read-outs stand apart in the source and are kept apart here.

Assays:
HiBiT-tagged MYB protein = test: HiBiT protein abundance assay, MYB (K562 HiBiT knock-in); format: cell-based, human; conditions: HiBiT knock-in cells, 24 hours
Method in brief: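 Endogenously HiBiT-tagged K562 knock-in lines treated 24 h at 37 °C with 10-point 3-fold dilutions (top 10 μM final, DMSO ≤0.25%) in IMDM+1% FBS. Lytic Nano-Glo luminescence normalized to DMSO and unmodified K562 controls; four-parameter fit gives 50%-abundance concentration (IC50).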

SMN2 mRNA = test: Splicing RT-qPCR panel, SMN2 canonical junction (CJ) mRNA; format: cell-based, human; conditions: read-out: SMN2 CJ (decrease in CJ mRNA levels, IC50)
Method in brief: (§1)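 A673 cells (DMEM, 10% FBS) or K562 cells (IMDM, 10% FBS) treated 24 h at 37 °C with an 11-point 3-fold dilution, top 10 uM, DMSO ≤0.25%. Canonical-junction mRNA quantified in lysates by RT-qPCR, normalised to GAPDH, GUSB or PPIA and to DMSO (2^−ΔΔCt), then converted to % response.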

Target C mRNA = test: Splicing RT-qPCR panel, Target C canonical junction (CJ) mRNA; format: cell-based, human; conditions: read-out: Target C CJ (decrease in CJ mRNA levels, IC50)
Method in brief: as §1

Target C = test: HiBiT protein abundance assay, Target C (K562 HiBiT knock-in); format: cell-based, human; conditions: HiBiT knock-in cells, 24 hours
Method in brief: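 K562 HiBiT knock-in cells (10000/well) in IMDM + 1% FBS were treated for 24 h at 37° C. with a 10-point 3-fold dilution series (top 10 μM final), with DMSO ≤0.25%. Unmodified K562 served as baseline. HiBiT lytic luminescence was normalized to controls, and IC50 was interpolated at 50% from a four-parameter fit.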

K562 cells = test: Cell viability, Cell Titer Glo 2.0 assay, K562; conditions: 72 hours

Row | Structure (SMILES) | IC50 (HiBiT-tagged MYB protein) [nM] | IC50 (SMN2 mRNA; Homo sapiens) [nM] | IC50 (Target C mRNA; Homo sapiens) [nM] | IC50 (Target C) [nM] | IC50 (SMN2 mRNA) [nM] | IC50 (Target C mRNA) [nM] | Effect on Cell Viability, K562 (K562 cells)
1 | Cn1cc2cc(-c3cnc4nc(N5CCC(NC6CC6)C5)ccc4n3)c(O)c(F)c2n1 (centres unmarked) [Compound 178, 5-[6-[3-(cyclopropylamino)pyrrolidin-1-yl]pyrido[2,3-b]pyrazin-2-yl]-7-fluoro-2-methyl-indazol-6-ol] | 100 to 1000 | < 100 | 100 to 1000 | 100 to 1000 | – | – | B (100-1000 nM)
2 | C[C@H]1CN(c2cnc3nc(-c4cc5cn(C)nc5cc4O)cc(Cl)c3c2)C[C@H](C)N1 [Compound 242] | < 100 | < 100 | 1000 to 10000 | 100 to 1000 | – | – | A (<100 nM)
3 | C[C@@H]1CN(c2cnc3nc(-c4cc5cn(C)nc5cc4O)cc(Cl)c3c2)C[C@@H](C)N1 [Compound 243, 5-{4-chloro-6-[(3R,5R)-3,5-dimethylpiperazin-1-yl]-1,8-naphthyridin-2-yl}-2-methylindazol-6-ol hydrochloride] | 100 to 1000 | < 100 | 1000 to 10000 | 1000 to 10000 | – | – | B (100-1000 nM)
4 | CNC1CCN(c2cnc3nc(-c4cc5cn(C)nc5c(C)c4O)ccc3n2)C1 (centres unmarked) [Compound 192, 2,7-dimethyl-5-{2-[3-(methylamino)337pyrrolidine-1-yl]pyrido[2,3-b]pyrazin-6-yl}indazol-6-ol] | 100 to 1000 | < 100 | 100 to 1000 | 100 to 1000 | – | – | B (100-1000 nM)
5 | C[C@@H]1CN(c2cnc3nc(-c4cc5cn(C)nc5c(F)c4O)ccc3c2)C[C@H](C)N1 [Compound 206] | < 100 | < 100 | 100 to 1000 | 100 to 1000 | – | – | A (<100 nM)
6 | Cn1cc2cc(-c3cc(Cl)c4cc(N5CCNCC5)cnc4n3)c(O)cc2n1 [Compound 102, 5-[4-chloro-6-(piperazin-1-yl)-1,8-naphthyridin-2-yl]-2-methylindazol-6-ol] | < 100 | < 100 | 1000 to 10000 | 100 to 1000 | – | – | B (100-1000 nM)
7 | Cn1cc2cc(-c3cc(Cl)c4cc(N5CCNC(C6CC6)C5)cnc4n3)cc(F)c2n1 (centres unmarked) [Compound 209, 4-chloro-6-(3-cyclopropylpiperazin-1-yl)-2-(7-fluoro-2-methylindazol-5-yl)-1,8-naphthyridine] | 100 to 1000 | < 100 | 1000 to 10000 | 1000 to 10000 | – | – | B (100-1000 nM)
8 | CNC1CCN(c2cnc3nc(-c4cc5cn(C)nc5cc4O)cc(Cl)c3c2)C1 (centres unmarked) [Compound 213, 5-{4-chloro-6-[3-(methylamino)370pyrrolidine-1-yl]-1,8-naphthyridin-2-yl}-2-methylindazol-6-ol] | < 100 | < 100 | 1000 to 10000 | 100 to 1000 | – | – | B (100-1000 nM)
9 | Cc1c(O)c(-c2ncc3cc(N4CC[C@H](N)C4)cnc3n2)cc2cn(C)nc12 [Compound 160, (S)-5-(6-(3-aminopyrrolidin-1-yl)pyrido[2,3-d]pyrimidin-2-yl)-2,7-dimethyl-2H-indazol-6-ol 2,2,2-trifluoroacetate] | < 100 | < 100 | 1000 to 10000 | 100 to 1000 | – | – | B (100-1000 nM)
10 | Cc1c(O)c(-c2ccc3nc(N4CCC(N(C)C)CC4)cnc3n2)cc2cn(C)nc12 [Compound 198] | 100 to 1000 | < 100 | 100 to 1000 | 1000 to 10000 | – | – | B (100-1000 nM)
11 | Cc1c(O)c(-c2cc(Cl)c3cc(N4CCNCC4)cnc3n2)cc2cn(C)nc12 [Compound 154, 5-[4-chloro-6-(piperazin-1-yl)-1,8-naphthyridin-2-yl]-2,7-dimethylindazol-6-ol] | < 100 | < 100 | 1000 to 10000 | 100 to 1000 | – | – | A (<100 nM)
12 | Cn1cc2cc(-c3ccc4cc(N5CC[C@H](NC(C)(C)C)C5)cnc4n3)c(O)cc2n1 (single isomer, unassigned) [Compound 200] | 100 to 1000 | < 100 | 1000 to 10000 | 1000 to 10000 | – | – | B (100-1000 nM)
13 | Cc1c(O)c(-c2cc(-c3nnc[nH]3)c3cc(N4C[C@@H](C)N[C@@H](C)C4)cnc3n2)cc2cn(C)nc12 [Compound 261, 5-{6-[(3R,5S)-3,5-dimethylpiperazin-1-yl]-4-(4H-1,2,4-triazol-3-yl)-1,8-naphthyridin-2-yl}-2,7-dimethylindazol-6-ol] | > 10000 | < 100 | 100 to 1000 | 1000 to 10000 | – | – | D (greater than 10 μM)
14 | CN[C@@H]1CCN(c2cnc3nc(-c4cc5cn(C)nc5c(F)c4O)cc(Cl)c3c2)C1 [Compound 271] | < 100 | < 100 | < 100 | < 100 | – | – | A (<100 nM)
15 | Cc1c(O)c(-c2cc(Cl)c3cc(N(C)C4CCNC4)cnc3n2)cc2cn(C)nc12 (centres unmarked) [Compound 204, 5-[4-chloro-6-(367pyrrolidine-3-ylamino)-1,8-naphthyridin-2-yl]-2,7-dimethylindazol-6-ol] | 100 to 1000 | < 100 | > 10000 | 1000 to 10000 | – | – | B (100-1000 nM)

More lines, main results first:

Row | IC50 (HiBiT-tagged MYB protein) [nM] | IC50 (SMN2 mRNA; Homo sapiens) [nM] | IC50 (Target C mRNA; Homo sapiens) [nM] | IC50 (Target C) [nM] | IC50 (SMN2 mRNA) [nM] | IC50 (Target C mRNA) [nM] | Structure (SMILES) | Effect on Cell Viability, K562 (K562 cells)
16 | < 100 | < 100 | 1000 to 10000 | 1000 to 10000 | – | – | C[C@@H]1CN(c2cnc3nc(-c4cc5cn(C)nc5c(F)c4O)cc(C#N)c3c2)C[C@H](C)N1 [Compound 266, 6-[(3R,5S)-3,5-dimethylpiperazin-1-yl]-2-(7-fluoro-6-hydroxy-2-methylindazol-5-yl)-1,8-naphthyridine-4-carbonitrile hydrochloride] | A (<100 nM)
17 | < 100 | < 100 | 1000 to 10000 | 100 to 1000 | – | – | Cn1cc2cc(-c3cc(Cl)c4cc(N5CCNCC5)cnc4n3)cc(F)c2n1 [Compound 103] | B (100-1000 nM)
18 | 100 to 1000 | < 100 | 1000 to 10000 | 1000 to 10000 | – | – | C[C@@H]1CN(c2cnc3nc(-c4cc(F)c5nn(C)cc5c4)cc(Cl)c3c2)C[C@H](C)N1 [Compound 215] | B (100-1000 nM)
19 | < 100 | – | – | 100 to 1000 | < 100 | 100 to 1000 | Cc1c(O)c(-c2cc(Cl)c3cc(N4C[C@@H](C)N[C@@H](C)C4)cnc3n2)cc2cn(C)nc12 [Compound 207, 5-{4-chloro-6-[(3R,5S)-3,5-dimethylpiperazin-1-yl]-1,8-naphthyridin-2-yl}-2,7-dimethylindazol-6-ol] | A (<100 nM)
20 | 100 to 1000 | < 100 | 100 to 1000 | 100 to 1000 | – | – | Cc1c(O)c(-c2ccc3nc(N4CCNCC4)cnc3n2)cc2cn(C)nc12 [Compound 197, 2,7-dimethyl-5-[2-(piperazin-1-yl)pyrido[2,3-b]pyrazin-6-yl]indazol-6-ol] | B (100-1000 nM)
21 | < 100 | < 100 | 100 to 1000 | 100 to 1000 | – | – | CN(C)[C@H]1CCN(c2cnc3nc(-c4cc5cn(C)nc5c(F)c4O)cc(Cl)c3c2)C1 [Compound 221] | A (<100 nM)
22 | < 100 | < 100 | 100 to 1000 | < 100 | – | – | CN[C@@H]1CCN(c2cnc3nc(-c4cc5cn(C)nc5c(C)c4O)nc(OC)c3c2)C1 [Compound 211, 5-{4-methoxy-6-[(3R)-3-(methylamino)pyrrolidin-1-yl]pyrido[2,3-d]pyrimidin-2-yl}-2,7-dimethylindazol-6-ol] | A (<100 nM)
23 | < 100 | < 100 | 100 to 1000 | 100 to 1000 | – | – | COc1nc(-c2cc3cn(C)nc3c(F)c2O)nc2ncc(N3C[C@@H](C)N[C@@H](C)C3)cc12 [Compound 218] | A (<100 nM)
24 | < 100 | < 100 | 100 to 1000 | 100 to 1000 | – | – | CN[C@@H]1CCN(c2cnc3nc(-c4cc(F)c5nc(C)cn5c4)ncc3c2)C1 [Compound 202, (3R)-1-(2-{8-fluoro-2-methylimidazo[1,2-a]pyridin-6-yl}pyrido[2,3-d]pyrimidin-6-yl)-N-methylpyrrolidin-3-amine] | B (100-1000 nM)
25 | 100 to 1000 | < 100 | > 10000 | > 10000 | – | – | COc1nc(-c2cc3cn(C)nc3c(C)c2O)nc2ncc(N3CCC(N(C)C)CC3)cc12 [Compound 163, 5-{6-[4-(dimethylamino)piperidin-1-yl]-4-methoxypyrido[2,3-d]pyrimidin-2-yl}-2,7-dimethylindazol-6-ol] | B (100-1000 nM)
